Measurements published in paper PMC10001106, “A New Bloody Pulp Selection of Myrobalan (Prunus cerasifera L.): Pomological Traits, Chemical Composition, and Nutraceutical Properties” (Foods, 2023).

Tests used:
Settings in all cases: mean ± SD, n = 3
[1] = DPPH radical scavenging test
Method: (§1) All the procedures were previously detailed. The Relative Antioxidant Capacity Index (RACI) was applied to evaluate the sample characterized by the highest activity. Linear regression, assessment of repeatability, calculation of average, relative standard deviation (SD), and Pearson’s correlation coefficient (r) were calculated by using Microsoft Excel 2010 software (Redmond, WA, USA). The results were expressed as the means of three different experiments ± SD.

[2] = ABTS radical scavenging test
Method: as §1

[3] = β-carotene bleaching test
Method: as §1

DPPH Test (IC50) [1]	ABTS Test (IC50) [2]	β-Carotene Bleaching Test (IC50) [3]	Structure (SMILES)
5.04 ± 0.81 µg/mL	1.72 ± 0.14 µg/mL		O=C1O[C@H]([C@@H](O)CO)C(O)=C1O [Ascorbic acid]
		0.09 ± 0.04 µg/mL	CCCOC(=O)c1cc(O)c(O)c(O)c1 [Propyl gallate]
